target: T1, human CCR10 (Homo sapiens, UniProt P46092); assay: CCR10 antagonistic effect: calcium assay of human CCR10 (CTACK-induced increase of intracellular calcium in hCCR10G16 cells); type: cell-based; details: at a concentration of not more than 1000 nmol/L; human CCR10-expressing hCCR10G16 cells, 300 nmol/L CTACK added; read-out: inhibition of increase in the calcium ion concentration
T1 construct: expressed in transfected cells; host or cells: KJMGER8 cells (Namalwa cell-derived line), beta-estradiol-induced; hCCR10G16 cells
T1 sequence (P46092 1-362): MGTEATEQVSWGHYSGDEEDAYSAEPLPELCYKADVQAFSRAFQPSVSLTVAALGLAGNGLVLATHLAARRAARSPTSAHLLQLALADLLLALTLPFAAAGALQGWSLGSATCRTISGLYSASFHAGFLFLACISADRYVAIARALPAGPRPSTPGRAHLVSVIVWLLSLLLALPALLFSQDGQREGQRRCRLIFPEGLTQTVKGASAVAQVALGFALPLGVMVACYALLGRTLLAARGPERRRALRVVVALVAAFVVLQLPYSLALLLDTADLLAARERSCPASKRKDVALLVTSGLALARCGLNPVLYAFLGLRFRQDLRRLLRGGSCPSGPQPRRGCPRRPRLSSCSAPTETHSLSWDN
In short: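 KJMGER8-derived hCCR10G16 cells (CCR10 plus Gα16, induced 24 h with 10 nmol/L β-estradiol), Fluo-3 loaded, preincubated with compound 30 min at 37 °C. Stimulated with CTACK (300 nmol/L solution before addition); calcium read ~5 min by FDSS, max−min fluorescence; % inhibition vs control.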

| inhibition at up to 1 µM [%] | Compound |
| --- | --- |
| ≥ 50 | COC1(c2ccc(F)cc2)CCN(C(=O)c2cnc(S(N)(=O)=O)c(C)c2NCc2ccccc2)CC1 [Compound 262, 4-(benzylamino)-5-[4-(4-fluorophenyl)-4-methoxypiperidine-1-carbonyl]-3-methylpyridine-2-sulfonamide] |
| ≥ 50 | NS(=O)(=O)c1ncc(C(=O)N2CCC(c3ccc(F)cc3)CC2)c(Oc2cccc(F)c2)c1Cl [Compound 238, 3-chloro-4-(3-fluorophenoxy)-5-[4-(4-fluorophenyl)piperidine-1-carbonyl]pyridine-2-sulfonamide] |
| ≥ 50 | Cc1cc(F)ccc1Nc1cc(S(=O)(=O)Nc2c(C)nn(C)c2C)ncc1C(=O)N1CCC(c2ccc(F)cc2)CC1 [Compound 152, 4-(4-fluoro-2-methylphenylamino)-5-[4-(4-fluorophenyl)piperidine-1-carbonyl]-N-(1,3,5-trimethyl-1H-pyrazol-4-yl)pyridine-2-sulfonamide] |
| ≥ 50 | NS(=O)(=O)c1cc(Nc2ccc(Cl)c(F)c2Cl)c(C(=O)N2CCC(c3ccc(F)cc3)CC2)cn1 [Compound 75, 4-(2,4-dichloro-3-fluorophenylamino)-5-[4-(4-fluorophenyl)piperidine-1-carbonyl]pyridine-2-sulfonamide] |
| ≥ 50 | Cc1c(S(=O)(=O)Nc2ccon2)ncc(C(=O)N2CCC(c3ccc(F)cc3)CC2)c1Nc1cc(F)cc(F)c1F [Compound 275, 5-[4-(4-fluorophenyl)piperidine-1-carbonyl]-N-(isoxazol-3-yl)-3-methyl-4-(2,3,5-trifluorophenylamino)pyridine-2-sulfonamide] |
| ≥ 50 | Cc1cc(NS(=O)(=O)c2ncc(C(=O)N3CCC(c4ccc(F)cc4)CC3)c(Nc3ccc(F)cc3C)c2Cl)no1 [Compound 40, 3-chloro-4-(4-fluoro-2-methylphenylamino)-5-[4-(4-fluorophenyl)piperidine-1-carbonyl]-N-(5-methylisoxazol-3-yl)pyridine-2-sulfonamide] |
| ≥ 50 | CC(=O)NC1CCN(S(=O)(=O)c2cc(Nc3ccc(F)cc3C)c(C(=O)N3CCC(c4ccc(F)cc4)CC3)cn2)CC1 [Compound 136, N-{1-{4-(4-fluoro-2-methylphenylamino)-5-[4-(4-fluorophenyl)piperidine-1-carbonyl]pyridin-2-ylsulfonyl}piperidin-4-yl}acetamide] |
| ≥ 50 | Cc1cc(NS(=O)(=O)c2ncc(C(=O)N3CCC(c4ccc(F)cc4)CC3)c(Nc3ccc(F)cc3C)c2Cl)on1 [Compound 41, 3-chloro-4-(4-fluoro-2-methylphenylamino)-5-[4-(4-fluorophenyl)piperidine-1-carbonyl]-N-(3-methylisoxazol-5-yl)pyridine-2-sulfonamide] |
| ≥ 50 | Cc1c(S(N)(=O)=O)ncc(C(=O)N2CCC(c3ccc(F)cc3)CC2)c1Nc1cccc(Cl)c1 [Compound 197, 4-(3-chlorophenylamino)-5-[4-(4-fluorophenyl)piperidine-1-carbonyl]-3-methylpyridine-2-sulfonamide] |
| ≥ 50 | Cc1c(Cl)cccc1Nc1c(C(=O)N2CCC(c3ccc(F)cc3)CC2)cnc(S(N)(=O)=O)c1Cl [Compound 180, 3-chloro-4-(3-chloro-2-methylphenylamino)-5-[4-(4-fluorophenyl)piperidine-1-carbonyl]pyridine-2-sulfonamide] |
| ≥ 50 | Cc1c(S(=O)(=O)Nc2ccon2)ncc(C(=O)N2CCC(c3ccc(F)cc3)CC2)c1NCCN1CCOCC1 [Compound 224, 5-[4-(4-fluorophenyl)piperidine-1-carbonyl]-N-(isoxazol-3-yl)-3-methyl-4-(2-morpholinoethylamino)pyridine-2-sulfonamide] |
| ≥ 50 | Cc1cc(F)ccc1Nc1c(C(=O)N2CCC(C#N)(c3ccccc3)CC2)cnc(S(N)(=O)=O)c1Cl [Compound 195, 3-chloro-5-(4-cyano-4-phenylpiperidine-1-carbonyl)-4-(4-fluoro-2-methylphenylamino)pyridine-2-sulfonamide] |
| ≥ 50 | Cc1cc(Nc2cc(S(N)(=O)=O)ncc2C(=O)N2CCC(c3ccc(F)cc3)CC2)c(F)cc1Cl [Compound 67, 4-(4-chloro-2-fluoro-5-methylphenylamino)-5-[4-(4-fluorophenyl)piperidine-1-carbonyl]pyridine-2-sulfonamide] |
| ≥ 50 | NS(=O)(=O)c1cc(Nc2ccc(Br)cc2Cl)c(C(=O)N2CCC(c3ccc(F)cc3)CC2)cn1 [Compound 90, 4-(4-bromo-2-chlorophenylamino)-5-[4-(4-fluorophenyl)piperidine-1-carbonyl]pyridine-2-sulfonamide] |
| ≥ 50 | NS(=O)(=O)c1ncc(C(=O)N2CCC(c3ccc(F)cc3)CC2)c(NC2(c3ccccc3)CC2)c1Cl [Compound 230, 3-chloro-5-[4-(4-fluorophenyl)piperidine-1-carbonyl]-4-(1-phenylcyclopropylamino)pyridine-2-sulfonamide] |
| ≥ 50 | CCCNC(=O)NS(=O)(=O)c1cc(Nc2cc(C)c(Cl)cc2C)c(C(=O)N2CCC(c3ccc(F)cc3)CC2)cn1 [Compound 167, 4-(4-chloro-2,5-dimethylphenylamino)-5-[4-(4-fluorophenyl)piperidine-1-carbonyl]-N-(propylcarbamoyl)pyridine-2-sulfonamide] |
| ≥ 50 | Cc1cc(F)ccc1Nc1cc(S(=O)(=O)N2CCC(N)CC2)ncc1C(=O)N1CCC(c2ccc(F)cc2)CC1 [Compound 10, [6-(4-aminopiperidin-1-ylsulfonyl)-4-(4-fluoro-2-methylphenylamino)pyridin-3-yl][4-(4-fluorophenyl)piperidin-1-yl]methanone] |
| ≥ 50 | Cc1cc(F)ccc1Nc1cc(S(=O)(=O)N(C)C)ncc1C(=O)N1CCC(c2ccc(F)cc2)CC1 [Compound 125, 4-(4-fluoro-2-methylphenylamino)-5-[4-(4-fluorophenyl)piperidine-1-carbonyl]-N,N-dimethylpyridine-2-sulfonamide] |
| ≥ 50 | Cc1cc(F)ccc1Nc1c(C(=O)N2CCC(c3ccc(F)cc3)CC2)cnc(S(=O)(=O)Nc2nccs2)c1Cl [Compound 188, 3-chloro-4-(4-fluoro-2-methylphenylamino)-5-[4-(4-fluorophenyl)piperidine-1-carbonyl]-N-(thiazol-2-yl)pyridine-2-sulfonamide] |
| ≥ 50 | Cc1cc(F)ccc1Nc1cc(S(=O)(=O)NC(=O)C2CC2)ncc1C(=O)N1CCC(c2ccc(F)cc2)CC1 [Compound 160, N-{4-(4-fluoro-2-methylphenylamino)-5-[4-(4-fluorophenyl)piperidine-1-carbonyl]pyridin-2-ylsulfonyl}cyclopropanecarboxamide] |
| ≥ 50 | Cc1ccccc1Nc1c(C(=O)N2CCC(c3ccc(F)cc3)CC2)cnc(S(=O)(=O)Nc2ccn(C)n2)c1Cl [Compound 317, 3-chloro-5-[4-(4-fluorophenyl)piperidine-1-carbonyl]-N-(1-methyl-1H-pyrazol-3-yl)-4-(o-tolylamino)pyridine-2-sulfonamide] |
| ≥ 50 | Cc1cc(F)ccc1Nc1c(C(=O)N2CCC(c3ccc(F)cc3)CC2)nnc(S(N)(=O)=O)c1Cl [Compound 240, 4-chloro-5-(4-fluoro-2-methylphenylamino)-6-[4-(4-fluorophenyl)piperidine-1-carbonyl]pyridazine-3-sulfonamide] |
| ≥ 50 | Cc1cc(NS(=O)(=O)c2ncc(C(=O)N3CCC(c4ccc(F)cc4)CC3)c(NCc3ccccc3)c2C)sn1 [Compound 251, 4-(benzylamino)-5-[4-(4-fluorophenyl)piperidine-1-carbonyl]-3-methyl-N-(3-methylisothiazol-5-yl)pyridine-2-sulfonamide] |
| ≥ 50 | Cc1cc(Nc2c(C(=O)N3CCC(c4ccc(F)cc4)CC3)cnc(S(N)(=O)=O)c2Cl)ccc1F [Compound 31, 3-chloro-4-(4-fluoro-3-methylphenylamino)-5-[4-(4-fluorophenyl)piperidine-1-carbonyl]pyridine-2-sulfonamide] |
| ≥ 50 | Cc1ncc(Cl)cc1Nc1c(C(=O)N2CCC(c3ccc(F)cc3)CC2)cnc(S(=O)(=O)Nc2ccon2)c1C [Compound 248, 4-(5-chloro-2-methylpyridin-3-ylamino)-5-[4-(4-fluorophenyl)piperidine-1-carbonyl]-N-(isoxazol-3-yl)-3-methylpyridine-2-sulfonamide] |
| ≥ 50 | CNC(=O)[C@@H]1C[C@@H](O)CN1S(=O)(=O)c1cc(Nc2ccc(F)cc2C)c(C(=O)N2CCC(c3ccc(F)cc3)CC2)cn1 [Compound 141, (2S,4R)-1-{4-(4-fluoro-2-methylphenylamino)-5-[4-(4-fluorophenyl)piperidine-1-carbonyl]pyridin-2-ylsulfonyl}-4-hydroxy-N-methylpyrrolidine-2-carboxamide] |
| ≥ 50 | COc1ccc(Nc2c(C(=O)N3CCC(c4ccc(F)cc4)CC3)cnc(S(N)(=O)=O)c2Cl)c(C)c1 [Compound 178, 3-chloro-5-[4-(4-fluorophenyl)piperidine-1-carbonyl]-4-(4-methoxy-2-methylphenylamino)pyridine-2-sulfonamide] |
| ≥ 50 | NS(=O)(=O)c1cc(Nc2cccc(Cl)c2)c(C(=O)N2CCC(c3ccc(F)cc3)CC2)cn1 [Compound 103, 4-(3-chlorophenylamino)-5-[4-(4-fluorophenyl)piperidine-1-carbonyl]pyridine-2-sulfonamide] |

— patent US9701689B2, “Substituted pyridines and pyridazines as CCR10 receptor inhibitors” (KYOWA HAKKO KIRIN CO., LTD., priority 2012, dated 2017)
